Measurements: patent US11964953B2, “Substituted aminothiazoles as DGKzeta inhibitors for immune activation” (Bayer Aktiengesellschaft, priority 2020, dated 2024)

The compounds below were run against human DGKζ (Homo sapiens (Human), UniProt Q13574) (assay: Human DGKζ kinase activity inhibition assay (ADP-Glo)). Conditions: in vitro human DGKζ kinase activity inhibition assay; read-out: IC50.
Type: biochemical
Summary of the method: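 ADP-Glo luminescence, reflecting ADP produced, served as the readout of activity. Full-length human DGKζ, FLAG-tagged at the C-terminus and insect-cell expressed, was used; lipid substrate mix was sonicated with octyl-β-D-glucopyranoside in 50 mM MOPS pH 7.4.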

human DGKζ, sequence (Q13574 other isoform, or with tags, fused parts or gaps): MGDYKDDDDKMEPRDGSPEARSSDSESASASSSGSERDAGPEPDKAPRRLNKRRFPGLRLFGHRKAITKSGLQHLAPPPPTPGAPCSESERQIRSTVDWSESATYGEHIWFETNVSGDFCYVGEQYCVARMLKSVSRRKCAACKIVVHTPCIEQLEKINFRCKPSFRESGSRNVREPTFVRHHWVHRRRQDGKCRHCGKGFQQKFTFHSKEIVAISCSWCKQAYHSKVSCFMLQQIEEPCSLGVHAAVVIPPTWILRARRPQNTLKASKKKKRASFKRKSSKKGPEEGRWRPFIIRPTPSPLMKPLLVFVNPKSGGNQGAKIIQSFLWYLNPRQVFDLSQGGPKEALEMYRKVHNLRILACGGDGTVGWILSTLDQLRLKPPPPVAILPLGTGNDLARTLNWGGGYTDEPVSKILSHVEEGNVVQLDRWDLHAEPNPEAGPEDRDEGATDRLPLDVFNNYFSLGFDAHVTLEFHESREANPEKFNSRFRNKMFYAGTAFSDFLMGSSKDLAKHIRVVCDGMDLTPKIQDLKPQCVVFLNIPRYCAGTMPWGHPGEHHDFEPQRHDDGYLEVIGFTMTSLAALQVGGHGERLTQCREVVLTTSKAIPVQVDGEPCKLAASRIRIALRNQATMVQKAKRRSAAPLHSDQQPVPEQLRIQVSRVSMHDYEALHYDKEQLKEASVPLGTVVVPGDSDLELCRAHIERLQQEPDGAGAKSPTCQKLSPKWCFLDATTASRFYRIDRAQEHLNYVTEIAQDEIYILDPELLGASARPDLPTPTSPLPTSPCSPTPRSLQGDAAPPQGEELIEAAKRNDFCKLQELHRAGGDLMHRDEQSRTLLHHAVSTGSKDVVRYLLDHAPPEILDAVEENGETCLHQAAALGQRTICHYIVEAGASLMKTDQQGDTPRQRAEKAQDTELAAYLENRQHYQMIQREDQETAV

Row | IC50 | SMILES
1 | 128 nM | CC(C(N)=O)N(c1ccc2c(c1)OCO2)c1nc(N)c(C(=O)c2ccccc2)s1 (racemic) [Example 196, rac-2-[(4-amino-5-benzoyl-thiazol-2-yl)-(1,3-benzodioxol-5-yl)amino]propanamide]
2 | 90 nM | CC(C(N)=O)N(c1ccc2c(c1)OC(F)(F)O2)c1nc(N)c(C(=O)c2ccccc2)s1 (racemic) [Example 197, rac-2-[(4-amino-5-benzoyl-thiazol-2-yl)-(2,2-difluoro-1,3-benzodioxol-5-yl)amino]propanamide]
3 | 70 nM | COc1ccc(C(=O)c2sc(N(c3ccc(OC(F)F)c(Cl)c3)C(C)C(N)=O)nc2N)cc1 (racemic) [Example 200, rac-2-[N-[4-amino-5-(4-methoxybenzoyl)thiazol-2-yl]-3-chloro-4-(difluoromethoxy)anilino]propanamide]
4 | 25 nM | CC(C(N)=O)N(c1ccc(OC(F)F)c(Cl)c1)c1nc(N)c(C(=O)c2ccc(OC(F)F)cc2)s1 (racemic) [Example 201, rac-2-[N-[4-amino-5-[4-(difluoromethoxy)benzoyl]thiazol-2-yl]-3-chloro-4-(difluoromethoxy)anilino]propanamide]
5 | 69 nM | CC(C(N)=O)N(c1ccc(OC(F)F)c(Cl)c1)c1nc(N)c(C(=O)c2ccc(Cl)cc2)s1 (racemic) [Example 202, rac-2-[N-[4-amino-5-(4-chlorobenzoyl)thiazol-2-yl]-3-chloro-4-(difluoromethoxy)anilino]propanamide]
6 | 54 nM | COc1ccc(C(=O)c2sc(N(c3ccc(OC(F)F)c(F)c3)C(C)C(N)=O)nc2N)cc1 (racemic) [Example 205, rac-2-[N-[4-amino-5-(4-methoxybenzoyl)thiazol-2-yl]-4-(difluoromethoxy)-3-fluoro-anilino]propanamide]
7 | 48 nM | CC(C(N)=O)N(c1ccc(OC(F)F)c(F)c1)c1nc(N)c(C(=O)c2ccc(Cl)cc2)s1 (racemic) [Example 206, rac-2-[N-[4-amino-5-(4-chlorobenzoyl)thiazol-2-yl]-4-(difluoromethoxy)-3-fluoro-anilino]propanamide]
8 | 22 nM | CC(C(N)=O)N(c1ccc(OC(F)F)c(F)c1)c1nc(N)c(C(=O)c2ccc(OC(F)F)cc2)s1 (racemic) [Example 207, rac-2-[N-[4-amino-5-[4-(difluoromethoxy)benzoyl]thiazol-2-yl]-4-(difluoromethoxy)-3-fluoro-anilino]propanamide]
9 | 41 nM | COc1ccc(C(=O)c2sc(N(c3ccc4c(c3)OC(F)(F)O4)C(C)C(N)=O)nc2N)cc1 (racemic) [Example 212, rac-2-[[4-amino-5-(4-methoxybenzoyl)thiazol-2-yl]-(2,2-difluoro-1,3-benzodioxol-5-yl)amino]propanamide]
10 | 42 nM | CC(C(N)=O)N(c1ccc2c(c1)OC(F)(F)O2)c1nc(N)c(C(=O)c2ccc(Cl)cc2)s1 (racemic) [Example 213, rac-2-[[4-amino-5-(4-chlorobenzoyl)thiazol-2-yl]-(2,2-difluoro-1 ,3-benzodioxol-5-yl)amino]propanamide]
11 | 16 nM | CC(C(N)=O)N(c1ccc2c(c1)OC(F)(F)O2)c1nc(N)c(C(=O)c2ccc(OC(F)F)cc2)s1 (racemic) [Example 214, rac-2-[[4-amino-5-[4-(difluoromethoxy)benzoyl]thiazol-2-yl]-(2,2-difluoro-1,3-benzodioxol-5-yl)amino]propanamide]
12 | 279 nM | CC(C(N)=O)N(c1ccc2c(c1)OC(F)(F)O2)c1nc(N)c(C(=O)c2ccncc2)s1 (racemic) [Example 215, rac-2-[[4-amino-5-(pyridine-4-carbonyl)thiazol-2-yl]-(2,2-difluoro-1,3-benzodioxol-5-yl)amino]propanamide]
13 | 32 nM | CC(C(N)=O)N(c1ccc2c(c1)OC(F)(F)O2)c1nc(N)c(C(=O)c2ccc(OC(F)F)nc2)s1 (racemic) [Example 216, rac-2-[[4-amino-5-[6-(difluoromethoxy)pyridine-3-carbonyl]thiazol-2-yl]-(2,2-difluoro-1,3-benzodioxol-5-yl)amino]propanamide]
14 | 41 nM | COc1ccc(C(=O)c2sc(N(c3ccc(OC(F)(F)F)c(F)c3)C(C)C(N)=O)nc2N)cc1 (racemic) [Example 217, rac-2-[N-[4-amino-5-(4-methoxybenzoyl)thiazol-2-yl]-3-fluoro-4-(trifluoromethoxy)anilino]propanamide]
15 | 108 nM | COc1ccc(C(=O)c2sc(N(c3ccc(OC(F)(F)F)c(Cl)c3)C(C)C(N)=O)nc2N)cc1 (racemic) [Example 222, rac-2-[N-[4-amino-5-(4-methoxybenzoyl)thiazol-2-yl]-3-chloro-4-(trifluoromethoxy)anilino]propanamide]

More lines, now with the values behind:

Row | SMILES | IC50
16 | CC(C(N)=O)N(c1ccc(C#N)c(F)c1)c1nc(N)c(C(=O)c2ccccc2)s1 (racemic) [Example 192, rac-2-(N-(4-amino-5-benzoyl-thiazol-2-yl)-4-cyano-3-fluoro-anilino)propanamide] | 224 nM
17 | CC(C(N)=O)N(c1ccc(Br)cc1)c1nc(N)c(C(=O)c2ccccc2)s1 (racemic) [Example 193, rac-2-(N-(4-amino-5-benzoyl-thiazol-2-yl)-4-bromo-anilino)propanamide] | 35 nM
18 | CC(C(N)=O)N(c1ccc(OC(F)F)c(Cl)c1)c1nc(N)c(C(=O)c2ccccc2)s1 (racemic) [Example 194, rac-2-[N-(4-amino-5-benzoyl-thiazol-2-yl)-3-chloro-4-(difluoromethoxy)anilino]propanamide] | 66 nM
19 | CCOc1ccc(N(c2nc(N)c(C(=O)c3ccccc3)s2)C(C)C(N)=O)cc1 (racemic) [Example 195, rac-2-(N-(4-amino-5-benzoyl-thiazol-2-yl)-4-ethoxy-anilino)propanamide] | 1000 nM
20 | CC(C(N)=O)N(c1ccc(OC(F)F)c(F)c1)c1nc(N)c(C(=O)c2ccccc2)s1 (racemic) [Example 198, rac-2-[N-(4-amino-5-benzoyl-thiazol-2-yl)-4-(difluoromethoxy)-3-fluoro-anilinojpropanamide] | 88 nM
21 | CC(C(N)=O)N(c1ccc(OCc2ccccc2)cc1)c1nc(N)c(C(=O)c2ccccc2)s1 (racemic) [Example 199, rac-2-(N-(4-amino-5-benzoyl-thiazol-2-yl)-4-benzyloxy-anilino)propanamide] | 396 nM
22 | CC(C(N)=O)N(c1ccc(OC(F)F)c(Cl)c1)c1nc(N)c(C(=O)c2ccncc2)s1 (racemic) [Example 203, rac-2-[N-[4-amino-5-(pyridine-4-carbonyl)thiazol-2-yl]-3-chloro-4-(difluoromethoxy)anilino]propanamide] | 381 nM
23 | CC(C(N)=O)N(c1ccc(OC(F)F)c(Cl)c1)c1nc(N)c(C(=O)c2ccc(OC(F)F)nc2)s1 (racemic) [Example 204, rac-2-[N-[4-amino-5-[6-(difluoromethoxy)pyridine-3-carbonyl]thiazol-2-yl]-3-chloro-4-(difluoromethoxy)anilino]propanamide] | 73 nM
24 | CC(C(N)=O)N(c1ccc(OC(F)F)c(F)c1)c1nc(N)c(C(=O)c2ccncc2)s1 (racemic) [Example 208, rac-2-[N-[4-amino-5-(pyridine-4-carbonyl)thiazol-2-yl]-4-(difluoromethoxy)-3-fluoro-anilino]propanamide] | 672 nM
25 | CC(C(N)=O)N(c1ccc(OC(F)F)c(F)c1)c1nc(N)c(C(=O)c2ccc(OC(F)F)nc2)s1 (racemic) [Example 209, rac-2-[N-[4-amino-5-[6-(difluoromethoxy)pyridine-3-carbonyl]thiazol-2-yl]-4-(difluoromethoxy)-3-fluoro-anilino]propanamide] | 45 nM
26 | CC(C(N)=O)N(c1ccc(OC(F)F)c(F)c1)c1nc(N)c(C(=O)c2ccc(OC(F)F)nc2)s1 (racemic) [Example 210, rac-2-[N-[4-amino-5-[6-(difluoromethoxy)pyridine-3-carbonyl]thiazol-2-yl]-4-(difluoromethoxy)-3-fluoro-anilino]propanamide] | 69 nM
27 | CC(C(N)=O)N(c1ccc(OC(F)(F)F)c(Cl)c1)c1nc(N)c(C(=O)c2ccccc2)s1 (racemic) [Example 211, rac-2-[N-(4-amino-5-benzoyl-thiazol-2-yl)-3-chloro-4-(trifluoromethoxy)anilino]propanamide] | 183 nM
28 | CC(C(N)=O)N(c1ccc(OC(F)(F)F)c(F)c1)c1nc(N)c(C(=O)c2ccc(Cl)cc2)s1 (racemic) [Example 218, rac-2-[N-[4-amino-5-(4-chlorobenzoyl)thiazol-2-yl]-3-fluoro-4-(trifluoromethoxy)anilino]propanamide] | 64 nM
29 | CC(C(N)=O)N(c1ccc(OC(F)(F)F)c(F)c1)c1nc(N)c(C(=O)c2ccc(OC(F)F)cc2)s1 (racemic) [Example 219, rac-2-[N-[4-amino-5-[4-(difluoromethoxy)benzoyl]thiazol-2-yl]-3-fluoro-4-(trifluoromethoxy)anilino]propanamide] | 13 nM
30 | CC(C(N)=O)N(c1ccc(OC(F)(F)F)c(F)c1)c1nc(N)c(C(=O)c2ccncc2)s1 (racemic) [Example 220, rac-2-[N-[4-amino-5-(pyridine-4-carbonyl)thiazol-2-yl]-3-fluoro-4-(trifluoromethoxy)anilino]propanamide] | 219 nM
31 | CC(C(N)=O)N(c1ccc(OC(F)(F)F)c(F)c1)c1nc(N)c(C(=O)c2ccc(OC(F)F)nc2)s1 (racemic) [Example 221, rac-2-[N-[4-amino-5-[6-(difluoromethoxy)pyridine-3-carbonyl]thiazol-2-yl]-3-fluoro-4-(trifluoromethoxy)anilino]propanamide] | 31 nM
32 | CC(C(N)=O)N(c1ccc(OC(F)(F)F)c(Cl)c1)c1nc(N)c(C(=O)c2ccc(Cl)cc2)s1 (racemic) [Example 223, rac-2-[N-[4-amino-5-(4-chlorobenzoyl)thiazol-2-yl]-3-chloro-4-(trifluoromethoxy)anilino]propanamide] | 235 nM
